According to the supplement of paper PMC11451515:

How the values were obtained:
Conditions in all cases: 48 h
P12-Ichikawa [1] = experiment: cell viability relative to DMSO control; higher = less cytotoxic
Method in brief: (§1)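 NOMO1, SEM and P12-Ichikawa leukemia cells spent at least four passages adapting to each medium before use. They were seeded at 500 cells/well (NOMO1, SEM) or 1000 cells/well (P12-Ichikawa) in 5 μl in 1536-well plates and pin-dosed with library compounds in DMSO at 11 threefold steps from 47 μM down to 0.79 nM. After 48 h at 37°C, CellTiter-Glo One luminescence was read. Viability is reported as a percentage of the DMSO wells on each plate, with cell-free wells as background.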

NOMO1 [2] = experiment: as above
Method in brief: as §1

SEM cells [3] = experiment: as above
Method in brief: as §1

P12-Ichikawa [4] = experiment: AUC of viability dose-response curve (% viability x log10 dose units); higher = less sensitive
Method in brief: (§2)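 Leukemia cells adapted to each medium were seeded in 1536-well plates (500 or 1000 cells/well) and given library compounds in DMSO for 48 h at 37°C. The 11 threefold doses spanned 47 μM to 0.79 nM, and CellTiter-Glo One luminescence was normalised per plate to DMSO and cell-free wells before four-parameter log-logistic fitting on log10 dose. Area under the curve was integrated with the trapezoidal rule, scaling curves above full viability and removing curves that failed quality control.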

NOMO1 [5] = experiment: as above
Method in brief: as §2

SEM cells [6] = experiment: as above
Method in brief: as §2

[7] = HPLM + 10% dialyzed FBS, 0.000781 µM
[8] = HPLM + 10% dialyzed FBS, 0.00234 µM
[9] = HPLM + 10% dialyzed FBS, 0.00702 µM
[10] = HPLM + 10% dialyzed FBS, 0.0211 µM
[11] = HPLM + 10% dialyzed FBS, 0.0632 µM
[12] = HPLM + 10% dialyzed FBS, 0.19 µM
[13] = HPLM + 10% dialyzed FBS, 0.569 µM
[14] = HPLM + 10% dialyzed FBS, 1.71 µM
[15] = HPLM + 10% dialyzed FBS, 5.12 µM
[16] = HPLM + 10% dialyzed FBS, 15.4 µM
[17] = HPLM + 10% dialyzed FBS, 46.1 µM
[18] = RPMI 5 mM glucose + 10% FBS, 0.000781 µM
[19] = RPMI 5 mM glucose + 10% FBS, 0.00234 µM
[20] = RPMI 5 mM glucose + 10% FBS, 0.00702 µM
[21] = RPMI 5 mM glucose + 10% FBS, 0.0211 µM
[22] = RPMI 5 mM glucose + 10% FBS, 0.0632 µM
[23] = RPMI 5 mM glucose + 10% FBS, 0.19 µM
[24] = RPMI 5 mM glucose + 10% FBS, 0.569 µM
[25] = RPMI 5 mM glucose + 10% FBS, 1.71 µM
[26] = RPMI 5 mM glucose + 10% FBS, 5.12 µM
[27] = RPMI 5 mM glucose + 10% FBS, 15.4 µM
[28] = RPMI 5 mM glucose + 10% FBS, 46.1 µM
[29] = RPMI 5 mM glucose + 10% dialyzed FBS, 0.000781 µM
[30] = RPMI 5 mM glucose + 10% dialyzed FBS, 0.00234 µM
[31] = RPMI 5 mM glucose + 10% dialyzed FBS, 0.00702 µM
[32] = RPMI 5 mM glucose + 10% dialyzed FBS, 0.0211 µM
[33] = RPMI 5 mM glucose + 10% dialyzed FBS, 0.0632 µM
[34] = RPMI 5 mM glucose + 10% dialyzed FBS, 0.19 µM
[35] = RPMI 5 mM glucose + 10% dialyzed FBS, 0.569 µM
[36] = RPMI 5 mM glucose + 10% dialyzed FBS, 1.71 µM
[37] = RPMI 5 mM glucose + 10% dialyzed FBS, 5.12 µM
[38] = RPMI 5 mM glucose + 10% dialyzed FBS, 15.4 µM
[39] = RPMI 5 mM glucose + 10% dialyzed FBS, 46.1 µM
[40] = RPMI 5 mM glucose + 10% dialyzed FBS

NC(=O)Nc1sc(-c2ccc(F)cc2)cc1C(N)=O gave a cell viability (P12-Ichikawa [1]; [7]) of 113%, a cell viability (P12-Ichikawa [1]; [8]) of 115% and a cell viability (P12-Ichikawa [1]; [9]) of 116%. For the same compound, the cell viability (P12-Ichikawa [1]; [10]) was 108%, the cell viability (P12-Ichikawa [1]; [11]) was 114% and the cell viability (P12-Ichikawa [1]; [12]) was 111%. The cell viability (P12-Ichikawa [1]; [13]) was 104%, the cell viability (P12-Ichikawa [1]; [14]) was 105% and the cell viability (P12-Ichikawa [1]; [15]) was 83.4%. The cell viability (P12-Ichikawa [1]; [16]) was 67.3%, the cell viability (P12-Ichikawa [1]; [17]) was 24.3% and the cell viability (P12-Ichikawa [1]; [18]) was 113%. For the same compound, the cell viability (P12-Ichikawa [1]; [19]) was 114%, the cell viability (P12-Ichikawa [1]; [20]) was 111% and the cell viability (P12-Ichikawa [1]; [21]) was 110%. For the same compound, the cell viability (P12-Ichikawa [1]; [22]) was 105%, the cell viability (P12-Ichikawa [1]; [23]) was 119% and the cell viability (P12-Ichikawa [1]; [24]) was 106%. The cell viability (P12-Ichikawa [1]; [25]) was 106%, the cell viability (P12-Ichikawa [1]; [26]) was 83.9% and the cell viability (P12-Ichikawa [1]; [27]) was 64.6%. It also gave a cell viability (P12-Ichikawa [1]; [28]) of 22.1%, a cell viability (P12-Ichikawa [1]; [29]) of 118% and a cell viability (P12-Ichikawa [1]; [30]) of 119%. For the same compound, the cell viability (P12-Ichikawa [1]; [31]) was 117%, the cell viability (P12-Ichikawa [1]; [32]) was 110% and the cell viability (P12-Ichikawa [1]; [33]) was 115%. It also gave a cell viability (P12-Ichikawa [1]; [34]) of 112%, a cell viability (P12-Ichikawa [1]; [35]) of 110% and a cell viability (P12-Ichikawa [1]; [36]) of 97.3%. It also gave a cell viability (P12-Ichikawa [1]; [37]) of 82.4%, a cell viability (P12-Ichikawa [1]; [38]) of 70.2% and a cell viability (P12-Ichikawa [1]; [39]) of 27.3%. The cell viability (NOMO1 [2]; [7]) was 108%, the cell viability (NOMO1 [2]; [8]) was 112% and the cell viability (NOMO1 [2]; [9]) was 117%. The cell viability (NOMO1 [2]; [10]) was 111%, the cell viability (NOMO1 [2]; [11]) was 121% and the cell viability (NOMO1 [2]; [12]) was 102%. It also gave a cell viability (NOMO1 [2]; [13]) of 94.5%, a cell viability (NOMO1 [2]; [14]) of 99.8% and a cell viability (NOMO1 [2]; [15]) of 83.8%. The cell viability (NOMO1 [2]; [16]) was 60.2%, the cell viability (NOMO1 [2]; [17]) was 55.2% and the cell viability (NOMO1 [2]; [18]) was 117%. It also gave a cell viability (NOMO1 [2]; [19]) of 99.7%, a cell viability (NOMO1 [2]; [20]) of 115% and a cell viability (NOMO1 [2]; [21]) of 96%. It also gave a cell viability (NOMO1 [2]; [22]) of 113%, a cell viability (NOMO1 [2]; [23]) of 110% and a cell viability (NOMO1 [2]; [24]) of 96.7%. The cell viability (NOMO1 [2]; [25]) was 92.4%, the cell viability (NOMO1 [2]; [26]) was 95.9% and the cell viability (NOMO1 [2]; [27]) was 78%. It also gave a cell viability (NOMO1 [2]; [28]) of 50.5%, a cell viability (NOMO1 [2]; [29]) of 101% and a cell viability (NOMO1 [2]; [30]) of 111%. It also gave a cell viability (NOMO1 [2]; [31]) of 111%, a cell viability (NOMO1 [2]; [32]) of 100% and a cell viability (NOMO1 [2]; [33]) of 103%. For the same compound, the cell viability (NOMO1 [2]; [34]) was 107%, the cell viability (NOMO1 [2]; [35]) was 104% and the cell viability (NOMO1 [2]; [36]) was 79.4%. It also gave a cell viability (NOMO1 [2]; [37]) of 75.6%, a cell viability (NOMO1 [2]; [38]) of 62% and a cell viability (NOMO1 [2]; [39]) of 54.1%. The cell viability (SEM cells [3]; [7]) was 99.3%, the cell viability (SEM cells [3]; [8]) was 113% and the cell viability (SEM cells [3]; [9]) was 115%. For the same compound, the cell viability (SEM cells [3]; [10]) was 110%, the cell viability (SEM cells [3]; [11]) was 96.7% and the cell viability (SEM cells [3]; [12]) was 125%. The cell viability (SEM cells [3]; [13]) was 119%, the cell viability (SEM cells [3]; [14]) was 103% and the cell viability (SEM cells [3]; [15]) was 90.5%. For the same compound, the cell viability (SEM cells [3]; [16]) was 61.7%, the cell viability (SEM cells [3]; [17]) was 18.3% and the cell viability (SEM cells [3]; [29]) was 112%. It also gave a cell viability (SEM cells [3]; [30]) of 116%, a cell viability (SEM cells [3]; [31]) of 117% and a cell viability (SEM cells [3]; [32]) of 103%. It also gave a cell viability (SEM cells [3]; [33]) of 125%, a cell viability (SEM cells [3]; [34]) of 109% and a cell viability (SEM cells [3]; [35]) of 106%. For the same compound, the cell viability (SEM cells [3]; [36]) was 97.2%, the cell viability (SEM cells [3]; [37]) was 75.1% and the cell viability (SEM cells [3]; [38]) was 55.9%. The cell viability (SEM cells [3]; [39]) was 11%, the “AUC of viability dose-response curve” value (P12-Ichikawa [4]; HPLM + 10% dialyzed FBS) was 419 and the “AUC of viability dose-response curve” value (P12-Ichikawa [4]; RPMI 5 mM glucose + 10% FBS) was 421. The “AUC of viability dose-response curve” value (P12-Ichikawa [4]; [40]) was 414, the “AUC of viability dose-response curve” value (NOMO1 [5]; HPLM + 10% dialyzed FBS) was 415 and the “AUC of viability dose-response curve” value (NOMO1 [5]; RPMI 5 mM glucose + 10% FBS) was 436. The “AUC of viability dose-response curve” value (NOMO1 [5]; [40]) was 415, the “AUC of viability dose-response curve” value (SEM cells [6]; HPLM + 10% dialyzed FBS) was 425 and the “AUC of viability dose-response curve” value (SEM cells [6]; RPMI 5 mM glucose + 10% FBS) was 304. The “AUC of viability dose-response curve” value (SEM cells [6]; [40]) was 402.
